# Measurements taken from US20200362305A1, “EFFICIENT INFECTION OF PRIMARY KER[…] HPV16” (Board of Supervisors of Louisiana State University and …, priority 2018, published 2020).
# System: HPV16
# Test: HPV16 infection of primary keratinocytes by ECM-to-cell transfer, cells grown with or without Y-27632
# Type: cell-based, human
# Conditions: primary cells grown in the presence or absence of the Rho kinase inhibitor Y-27632
# Protocol: Human embryonic kidney 293TT and HeLa cells were obtained from John Schiller and Daniel DiMaio, respectively. They were cultured in DMEM supplemented with 10% FBS, non-essential amino acids, antibiotics, and L-Glutamax. Spontaneously immortalized human keratinocytes HaCaT cells were purchased from the American Type Culture Collection (ATCC) and grown in low glucose DMEM containing 5% FBS and antibiotics. Human foreskin keratinocytes (HFKs) were derived from neonatal human foreskin epithelia and maintained in E medium containing mouse epidermal growth factor (EGF) and mitomycin-treated mouse 3T3 J2 fibroblasts. Pooled primary epithelial keratinocytes were also purchased from the ATCC (PCS-200-010) and used in some experiments. In early experiments where indicated, the inventors maintained and infected primary keratinocytes in the presence of the Rho kinase inhibitor (ROCK) Y-27632, which was reported to increase their lifespan. However, the ROCK inhibitor was excluded prior and during experiments involving long term culturing of infected primary cells. Stable cell lines containing HPV16 episomes were created by co-transfection of pEGFP-N1-HPV16 containing the HPV16 genome (W12 strain) with an expression vector for Cre recombinase and a Neomycin resistance plasmid. […]
compound,measurement,value
C[C@@H](N)[C@H]1CC[C@H](C(=O)Nc2ccncc2)CC1 [Y-27632],infection efficiency,no significant difference
